Earlier results as cited in patent US8003783B2, “17B-hydroxysteroid dehydrogenase inhibitors” (Sterix Limited, priority 2004, dated 2011).

Tests used:
rat liver E1-STS = target: T1, rat liver E1-STS (Rattus norvegicus, UniProt P15589); conditions: administered orally or subcutaneously; cited from earlier work
T1 construct: samples of liver tissue were obtained and oestrone sulphatase activity assayed; from tissue; host or cells: rat liver
T1 sequence (P15589 20-577): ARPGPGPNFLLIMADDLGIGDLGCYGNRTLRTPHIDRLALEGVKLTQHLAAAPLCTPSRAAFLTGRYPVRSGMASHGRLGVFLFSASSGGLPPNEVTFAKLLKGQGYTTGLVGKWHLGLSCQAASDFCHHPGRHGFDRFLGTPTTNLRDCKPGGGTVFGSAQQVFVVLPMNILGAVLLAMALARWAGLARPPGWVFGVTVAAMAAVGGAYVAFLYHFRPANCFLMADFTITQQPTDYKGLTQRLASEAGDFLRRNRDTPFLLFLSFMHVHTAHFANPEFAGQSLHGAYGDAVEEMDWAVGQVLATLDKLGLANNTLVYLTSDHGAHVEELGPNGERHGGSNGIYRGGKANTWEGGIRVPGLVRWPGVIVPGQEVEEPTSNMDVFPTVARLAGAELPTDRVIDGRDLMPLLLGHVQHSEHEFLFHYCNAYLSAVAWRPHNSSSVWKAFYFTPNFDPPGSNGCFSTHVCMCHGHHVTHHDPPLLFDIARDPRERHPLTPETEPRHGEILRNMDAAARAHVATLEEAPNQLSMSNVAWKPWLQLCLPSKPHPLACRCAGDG

rat liver DHA-STS = target: T2, rat liver DHA-STS (Rattus norvegicus, UniProt P15589); conditions: administered orally or subcutaneously; cited from earlier work
T2 construct: from tissue; host or cells: rat liver
T2 sequence (P15589 20-577): T1 sequence (P15589 20-577)

E1-STS = target: T3, E1-STS (Homo sapiens, UniProt P08842); parameters: dose or concentration left out as unconfirmed; conditions: intact MCF-7 cells; cited from earlier work
T3 construct: endogenous in cells; host or cells: MCF-7 human breast cancer cells
T3 sequence (P08842 22-583): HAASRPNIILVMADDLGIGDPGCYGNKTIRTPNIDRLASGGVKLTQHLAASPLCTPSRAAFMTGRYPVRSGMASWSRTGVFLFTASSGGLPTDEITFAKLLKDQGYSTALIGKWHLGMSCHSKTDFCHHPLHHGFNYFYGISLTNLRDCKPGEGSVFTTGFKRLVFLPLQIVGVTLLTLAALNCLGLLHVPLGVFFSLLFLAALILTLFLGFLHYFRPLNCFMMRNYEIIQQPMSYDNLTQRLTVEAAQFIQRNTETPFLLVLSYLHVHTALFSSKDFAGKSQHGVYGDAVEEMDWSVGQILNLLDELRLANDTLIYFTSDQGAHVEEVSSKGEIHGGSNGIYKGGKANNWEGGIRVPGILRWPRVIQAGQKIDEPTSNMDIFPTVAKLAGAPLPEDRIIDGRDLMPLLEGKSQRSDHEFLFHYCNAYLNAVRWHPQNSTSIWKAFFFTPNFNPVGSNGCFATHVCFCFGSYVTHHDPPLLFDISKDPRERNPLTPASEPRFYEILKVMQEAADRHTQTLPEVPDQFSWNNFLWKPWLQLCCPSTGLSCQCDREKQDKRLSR

rats = conditions: cited from earlier work

C[C@]12CC[C@@H]3c4ccc(OS(N)(=O)=O)cc4CC[C@H]3[C@@H]1CCC2=O [EMATE, oestrone-3-sulphamate]
inhibition of rat liver E1-STS activity (rat liver E1-STS): 99%
inhibition of rat liver DHA-STS activity (rat liver DHA-STS): 99%
inhibition of E1-STS activity (E1-STS): more than 99%
oral uterotrophic activity relative to oestradiol (rats): 100 times
